Measurements taken from US11717503B2 (priority 2020, dated 2023).
Values joined by “and” are separate entries in the source; they are usually repeats but may differ in a detail not shown here. Equal values may be shown once.

Assays:
Parameters in all cases: species or system C57BL/6 mice
[1] = test system: H7N9 avian influenza virus; conditions: mouse, in vivo, po
[2] = test system: H7N9 avian influenza virus; conditions: mouse, in vivo
IL-1β = conditions: mouse, in vivo, po
IFN-γ = conditions: mouse, in vivo
[3] = test system: H7N9 avian influenza virus; conditions: mouse, in vivo; remark: listed apart in the source

SMILES | Mortality [1] [%] | Number of survivals 15 days post infection [1] | Survival rate [1] [%] | Effect on weight loss caused by H7N9 infection (in words) [2] | IL-1β content in lung homogenate (IL-1β) | IFN-γ level vs control group (in words) (IFN-γ) | IFN-γ content in lung homogenate (IFN-γ; po) | Effect on proliferation of influenza virus in the lungs (in words) [3] | Virus content in the lungs (virus titer) ([3]; po) [log10EID50/ml]
CC[C@H](C)[C@H](N)C(=O)O [Isoleucine, isoleucine] | 100 | 0 | 0 | did not improve the weight loss |  |  |  |  | 
NCCCC[C@H](N)C(=O)O [Lysine, lysine] | 90 | 1 | 10 | alleviated the weight loss |  |  |  |  | 
CC(C)[C@H](N)C(=O)O [Valine, valine] | 60 | 4 | 40 | alleviated the weight loss | 691.546 ± 125.531 pg/mL and 512.836 ± 104.971 pg/mL | significantly higher | 121.927 ± 10.241 pg/mL and 108.583 ± 10.700 pg/mL | significantly reduce the proliferation | 4.168 ± 0.614
